From article PMC6556873, “Rapid Covalent-Probe Discovery by Electrophile-Fragment Screening” (Journal of the American Chemical Society, 2019)
Like-named read-outs stand apart in the source and are kept apart here.

Experiments:
[1] = biological target: T1, BSA (Bos taurus, UniProt P02769); set-up: Intact protein LC/MS covalent labelling, fragments in pools of five, 200 uM each, 4 °C; conditions: 24 h, 4 °C, pool of five; 200 µM; covalent
T1 construct: gene ALB

[2] = biological target: T2, NUDT7 (Homo sapiens, UniProt P0C024); set-up: Intact protein LC/MS covalent labelling, fragments in pools of five, 200 uM each, 4 °C; conditions: 24 h, 4 °C, pool of five; 200 µM; covalent
T2 construct: residues 14-235, E. coli, pNIC28-Bsa4, N-terminal His6 tag removed by TEV, construct 26672 Da

[3] = biological target: T3, OTUB2 (OTUB2A) (Homo sapiens, UniProt Q96DC9); set-up: Intact protein LC/MS covalent labelling, fragments in pools of five, 200 uM each, 4 °C; conditions: 24 h, 4 °C, pool of five; 200 µM; covalent
T3 construct: full length residues 1-234, E. coli BL21(DE3)-R3, His tag removed by TEV, construct 27312 Da
T3 sequence (Q96DC9 1-234): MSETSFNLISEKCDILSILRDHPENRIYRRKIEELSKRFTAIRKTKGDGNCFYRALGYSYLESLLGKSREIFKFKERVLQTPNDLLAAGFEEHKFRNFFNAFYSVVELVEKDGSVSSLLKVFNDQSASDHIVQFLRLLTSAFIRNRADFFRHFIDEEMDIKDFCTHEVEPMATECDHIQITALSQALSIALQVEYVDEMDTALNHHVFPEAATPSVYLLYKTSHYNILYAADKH

[4] = biological target: T4, PCAF (Homo sapiens, UniProt Q92831); set-up: Intact protein LC/MS covalent labelling, fragments in pools of five, 200 uM each, 4 °C; conditions: 24 h, 4 °C, pool of five; 200 µM; covalent
T4 construct: gene KAT2B

[5] = in vitro; set-up: species or system CCD841, HEK293; conditions: human, hb2 cells, read-out: HB-2 Cells Viability (%)
[6] = in vitro; set-up: species or system HB2, HEK293; conditions: human, ccd841 cells
[7] = in vitro; set-up: species or system HB2, CCD841; conditions: human, hek293 cells

T1 sequence (P02769 whole entry, the tested form may be a part): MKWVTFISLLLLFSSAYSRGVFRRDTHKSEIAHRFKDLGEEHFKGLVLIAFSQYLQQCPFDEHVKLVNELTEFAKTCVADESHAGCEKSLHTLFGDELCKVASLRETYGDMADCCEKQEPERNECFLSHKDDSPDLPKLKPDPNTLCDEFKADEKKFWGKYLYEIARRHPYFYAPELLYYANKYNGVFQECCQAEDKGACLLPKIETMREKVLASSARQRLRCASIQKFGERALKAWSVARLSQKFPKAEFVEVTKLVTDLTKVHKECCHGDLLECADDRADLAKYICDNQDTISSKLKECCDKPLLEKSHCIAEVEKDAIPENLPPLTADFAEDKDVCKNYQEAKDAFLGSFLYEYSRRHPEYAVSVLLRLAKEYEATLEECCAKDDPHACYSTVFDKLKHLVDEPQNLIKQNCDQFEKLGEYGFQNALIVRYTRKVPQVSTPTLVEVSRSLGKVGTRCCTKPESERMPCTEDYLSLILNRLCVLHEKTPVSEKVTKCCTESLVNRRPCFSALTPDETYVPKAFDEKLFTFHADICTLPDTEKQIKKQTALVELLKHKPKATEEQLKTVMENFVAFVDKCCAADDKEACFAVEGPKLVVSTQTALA
T4 sequence (Q92831 whole entry, the tested form may be a part): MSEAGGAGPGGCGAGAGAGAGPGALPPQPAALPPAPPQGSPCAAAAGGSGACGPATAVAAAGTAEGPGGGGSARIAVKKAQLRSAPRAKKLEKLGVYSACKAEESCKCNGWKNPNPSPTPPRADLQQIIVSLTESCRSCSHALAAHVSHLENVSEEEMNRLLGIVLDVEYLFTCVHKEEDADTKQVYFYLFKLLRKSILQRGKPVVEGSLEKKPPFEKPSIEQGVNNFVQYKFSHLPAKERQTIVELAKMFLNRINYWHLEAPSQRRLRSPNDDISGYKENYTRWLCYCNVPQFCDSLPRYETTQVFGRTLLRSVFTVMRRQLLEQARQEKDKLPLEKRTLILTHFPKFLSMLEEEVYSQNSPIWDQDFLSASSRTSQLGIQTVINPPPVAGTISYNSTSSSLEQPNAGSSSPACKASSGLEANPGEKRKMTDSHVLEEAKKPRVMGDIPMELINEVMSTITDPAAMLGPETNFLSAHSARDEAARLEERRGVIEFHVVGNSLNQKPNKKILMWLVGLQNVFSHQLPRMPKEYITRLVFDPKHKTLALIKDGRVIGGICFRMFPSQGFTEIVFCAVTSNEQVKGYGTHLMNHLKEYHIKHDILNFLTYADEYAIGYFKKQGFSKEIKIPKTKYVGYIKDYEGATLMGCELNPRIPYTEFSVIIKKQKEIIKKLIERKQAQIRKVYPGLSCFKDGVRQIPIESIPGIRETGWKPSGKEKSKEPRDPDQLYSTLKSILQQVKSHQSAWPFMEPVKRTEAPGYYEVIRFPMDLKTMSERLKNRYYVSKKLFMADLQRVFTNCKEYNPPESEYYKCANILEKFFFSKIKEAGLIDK
T2 sequence (P0C024 14-235): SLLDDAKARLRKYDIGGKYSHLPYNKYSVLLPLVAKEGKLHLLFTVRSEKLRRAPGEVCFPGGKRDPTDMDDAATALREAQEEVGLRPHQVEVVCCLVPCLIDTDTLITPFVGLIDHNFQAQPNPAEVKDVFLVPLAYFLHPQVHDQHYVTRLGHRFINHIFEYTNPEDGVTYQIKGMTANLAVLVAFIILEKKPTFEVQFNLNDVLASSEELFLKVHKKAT

| Compound | BSA [1] | NUDT7 [2] | OTUB2 [3] | PCAF [4] | viability at 48 h, 10 µM [5] [%] | viability at 48 h, 10 µM [6] [%] | viability at 48 h, 10 µM [7] [%] |
| --- | --- | --- | --- | --- | --- | --- | --- |
| CC(C)(C)NC(=O)NC(=O)CCl [PCM-0102540] | 0 | 0 | 0 | 0 | 111 | 140 | 113 |
| Cl.O=C(CCl)Nc1ccncc1 [PCM-0102930] | 0 | 0 | 0 | 0 | 86.4 | 90.7 | 90.5 |
| C=CC(=O)NCc1c2c(nn1C)CCCC2 [PCM-0103044] | 0 | 0 | 0.08 | 0 | 97.2 | 98.1 | 74.2 |
| O=C(CCl)Nc1cc(F)ccc1C(=O)O [PCM-0102247] | 0 | 0 | 0 | 0 | 106 | 95.7 | 97 |
| CC(C)(C)C(=O)NC(=O)CCl [PCM-0103021] | 0 | 0 | 0 | 0 | 105 | 116 | 98.9 |
| CCC(C)(C)NC(=O)CCl [PCM-0102161] | 0 | 0 | 0.09 | 0 | 99.3 | 100 | 116 |
| O=C(CCl)Nc1ccc([N+](=O)[O-])cc1C(F)(F)F [PCM-0102406] | 0 | 0 | 0 | 0 | 81.5 | 83.1 | 71.9 |
| Cl.O=C(CCl)N1CCN(c2cnccn2)CC1 [PCM-0102889] | 0 | 0 | 0 | 0 | 88.2 | 97.2 | 94.7 |
| O=C(CCl)Nc1cc2c(cc1Br)OCCO2 [PCM-0102299] | 0 | 0.27 | 0.67 | 0 | 15.8 | 62.8 | 12.6 |
| N#Cc1ccc(Cl)cc1NC(=O)CCl [PCM-0102700] | 0 | 0.4 | 0.17 | 0 | 57.6 | 68.1 | 64.8 |
| O=C(CCl)NNC(=O)c1ccc(Cl)cc1 [PCM-0102953] | 0 | 0 | 0.18 | 0 | 83 | 82.1 | 82.8 |
| NC(=O)c1ccccc1NC(=O)CCl [PCM-0102758] | 0 | 0 | 0 | 0 | 69.6 | 66.1 | 53.5 |
| Cc1ccc(-n2nc(C)cc2NC(=O)CCl)cc1 [PCM-0102224] | 0 | 0 | 0.35 | 0 | 49.3 | 67.5 | 24.9 |
| NC(=O)c1c(NC(=O)CCl)sc2c1CCC2 [PCM-0102164] | 0 | 0.28 | 0 | 0 | 27.2 | 25.6 | 2.6 |
